The results in this text go back to ChEMBL document CHEMBL6092211, “Discovery and evaluation of novel SHIP-1 inhibitors” (Bioorg Med Chem, 2024).

pEC50, pIC50, pKi: −log10 of the molar value. A value given as a limit tells only on which side of the number the result lay.

Data set [1] concerns the target T1, Phosphatidylinositol 3,4,5-trisphosphate 5-phosphatase 1 (Homo sapiens, UniProt Q92835).
T1 sequence (Q92835 whole entry): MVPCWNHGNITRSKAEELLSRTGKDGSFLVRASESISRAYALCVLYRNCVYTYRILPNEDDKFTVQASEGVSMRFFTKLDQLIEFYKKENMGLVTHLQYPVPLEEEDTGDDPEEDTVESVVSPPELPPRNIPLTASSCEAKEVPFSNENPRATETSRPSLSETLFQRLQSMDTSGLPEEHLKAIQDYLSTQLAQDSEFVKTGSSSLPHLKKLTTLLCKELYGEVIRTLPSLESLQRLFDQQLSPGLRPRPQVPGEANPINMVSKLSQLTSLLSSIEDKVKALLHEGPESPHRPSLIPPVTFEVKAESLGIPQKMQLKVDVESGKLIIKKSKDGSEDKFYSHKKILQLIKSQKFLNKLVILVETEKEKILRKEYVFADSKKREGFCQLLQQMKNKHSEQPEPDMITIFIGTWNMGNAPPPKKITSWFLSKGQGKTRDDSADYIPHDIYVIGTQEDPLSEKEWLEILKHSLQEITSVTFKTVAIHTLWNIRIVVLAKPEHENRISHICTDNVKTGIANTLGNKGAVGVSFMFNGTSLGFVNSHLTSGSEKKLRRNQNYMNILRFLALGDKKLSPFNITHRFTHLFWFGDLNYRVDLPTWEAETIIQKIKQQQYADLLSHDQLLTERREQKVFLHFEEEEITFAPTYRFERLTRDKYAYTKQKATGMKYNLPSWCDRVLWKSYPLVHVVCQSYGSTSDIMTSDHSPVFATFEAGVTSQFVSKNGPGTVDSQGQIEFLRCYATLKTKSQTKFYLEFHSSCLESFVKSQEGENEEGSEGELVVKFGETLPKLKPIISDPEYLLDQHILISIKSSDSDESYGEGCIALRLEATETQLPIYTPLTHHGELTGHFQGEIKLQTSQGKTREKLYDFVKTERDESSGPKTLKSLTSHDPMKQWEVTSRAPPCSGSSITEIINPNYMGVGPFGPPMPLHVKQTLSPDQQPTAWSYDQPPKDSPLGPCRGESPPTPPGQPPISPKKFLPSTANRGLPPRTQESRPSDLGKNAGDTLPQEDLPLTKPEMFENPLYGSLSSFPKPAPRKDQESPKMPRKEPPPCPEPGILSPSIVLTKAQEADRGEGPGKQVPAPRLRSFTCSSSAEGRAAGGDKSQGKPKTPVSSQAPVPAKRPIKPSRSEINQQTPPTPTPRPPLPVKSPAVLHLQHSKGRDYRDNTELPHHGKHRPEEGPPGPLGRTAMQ
In words: Inhibition of human SHIP-1 (397 to 715 residues) catalytic domain expressed in Rosetta DE3 BL21 cells using 1-(1,2-dioctanoylphosphatidyl) inositol-3,4,5-trisphosphate as substrate by malachite green based spectramax microplate reader analysis.

Data set [2] has as its target T1, Phosphatidylinositol 3,4,5-trisphosphate 5-phosphatase 1. In words: Inhibition of SHIP-1 (unknown origin) using PtdIns(3,4,5)P3 as substrate by malachite green solution based […] analysis. (In general: Fluorescence polarisation rises when a labelled molecule tumbles more slowly, as on binding a larger partner.)
For data set [3] the target is unchanged. In words: Inhibition of recombinant SHIP-1 (unknown origin) using PtdIns(3,4,5)P3 as substrate incubated for 30 mins by malachite green solution based analysis.
The nature of data set [4]: Cytotoxicity against human HMC3 cells assessed as cell count incubated for 48 hrs by Hoechst-33342 staining based analysis. It counts as toxicity.
For data set [5], the target named is T1, Phosphatidylinositol 3,4,5-trisphosphate 5-phosphatase 1. In words: Competitive inhibition of human SHIP-1 (397 to 715 residues) catalytic domain expressed in Rosetta DE3 BL21 cells assessed as inhibition constant by Lineweaver-Burk plot analysis. The class given is cell-based.
Data set [6] concerns HMC3. In words: cells. Particulars: Homo sapiens, HMC3, 48 h.
For data set [7], the system named is HMC3. Description: cells. Particulars: Homo sapiens, HMC3, 48 h. The source holds these as a separate data set.
The target of data set [8] is T2, Phosphatidylinositol 3,4,5-trisphosphate 5-phosphatase 2 (Homo sapiens, UniProt O15357).
T2 sequence (O15357 whole entry): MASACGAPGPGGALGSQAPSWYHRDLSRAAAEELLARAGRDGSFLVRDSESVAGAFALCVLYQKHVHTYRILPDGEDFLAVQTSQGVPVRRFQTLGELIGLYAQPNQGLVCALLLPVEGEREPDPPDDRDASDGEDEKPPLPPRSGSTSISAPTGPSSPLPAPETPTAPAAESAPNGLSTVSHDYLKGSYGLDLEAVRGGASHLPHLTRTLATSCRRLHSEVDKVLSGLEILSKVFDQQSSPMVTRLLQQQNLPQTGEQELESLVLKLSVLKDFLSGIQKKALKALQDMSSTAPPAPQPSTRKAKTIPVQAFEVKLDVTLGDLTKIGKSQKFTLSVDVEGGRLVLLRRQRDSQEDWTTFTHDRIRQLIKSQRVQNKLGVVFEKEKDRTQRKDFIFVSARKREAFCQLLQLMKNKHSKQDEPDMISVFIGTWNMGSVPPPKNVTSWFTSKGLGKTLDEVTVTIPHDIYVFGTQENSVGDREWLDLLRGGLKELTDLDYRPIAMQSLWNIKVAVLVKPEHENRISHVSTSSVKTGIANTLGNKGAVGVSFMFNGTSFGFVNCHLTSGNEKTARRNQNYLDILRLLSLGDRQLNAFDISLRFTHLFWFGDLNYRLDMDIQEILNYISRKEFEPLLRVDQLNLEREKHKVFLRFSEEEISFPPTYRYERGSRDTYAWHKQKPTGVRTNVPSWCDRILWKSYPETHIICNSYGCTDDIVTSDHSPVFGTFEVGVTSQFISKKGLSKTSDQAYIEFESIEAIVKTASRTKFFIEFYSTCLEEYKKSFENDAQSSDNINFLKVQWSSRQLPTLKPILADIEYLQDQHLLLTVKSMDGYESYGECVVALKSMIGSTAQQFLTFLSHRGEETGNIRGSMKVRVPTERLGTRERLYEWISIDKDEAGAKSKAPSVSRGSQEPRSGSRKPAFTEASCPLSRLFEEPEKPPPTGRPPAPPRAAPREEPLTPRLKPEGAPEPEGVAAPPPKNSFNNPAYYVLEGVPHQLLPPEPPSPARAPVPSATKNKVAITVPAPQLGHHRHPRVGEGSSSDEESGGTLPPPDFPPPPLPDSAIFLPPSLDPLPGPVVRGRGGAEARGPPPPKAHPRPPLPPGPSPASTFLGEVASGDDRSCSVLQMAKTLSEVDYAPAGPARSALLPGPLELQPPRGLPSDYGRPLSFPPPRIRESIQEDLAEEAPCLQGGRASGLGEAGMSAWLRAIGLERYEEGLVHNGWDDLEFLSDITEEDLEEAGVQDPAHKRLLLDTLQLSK
Description: Inhibition of recombinant SHIP-2 (unknown origin) using PtdIns(3,4,5)P3 as substrate incubated for 30 mins by malachite green solution based analysis.

Data set [9] has as its target T1, Phosphatidylinositol 3,4,5-trisphosphate 5-phosphatase 1. In words: Inhibition of SHIP-1 (unknown origin) by malachite green solution based […] analysis.
In data set [10] the target is T2, Phosphatidylinositol 3,4,5-trisphosphate 5-phosphatase 2. In words: Inhibition of human SHIP-2 (420 to 732 residues) catalytic domain expressed in Rosetta DE3 BL21 cells using -(1,2-dioctanoylphosphatidyflinosito1-3,4,5-trisphosphate as substrate by malachite green based spectramax microplate reader analysis.

A word on the pIC50: it is the negative decadic logarithm of the IC50, by convention in mol/L. In data set [1], `Cc1oc(-c2ccccc2Cl)nc1Cn1cccc1C1=NC(c2ccccc2)CO1` (stereo not given) gave a pIC50 of 4.33.

With `N#CC1=C2N=C(N)c3ccccc3N2C2=C(C(=O)CCC2)C1c1cccc(Cl)c1` (stereo not given), the pIC50 in data set [1] is 4.81.

As to `CC(C)CCC[C@@H](C)[C@H]1CC[C@H]2[C@@H]3CC[C@H]4C[C@H](N)CC[C@]4(C)[C@H]3CC[C@]12C`, in [2], the pIC50 is 4.86.

On to `CSc1ccc2c(c1)c(CCN)c(C)n2Cc1ccccc1Cl`, for which the pIC50 in [3] was 3.30.

Regarding `N#CC1=C2N=C(N)c3ccccc3N2C2=C(C(=O)CCC2)C1c1cccnc1` (stereo not given), in data set [1], the pIC50 is 4.18.

One may read the IC50 as the concentration that inhibits the measured activity by half. One may read the pKi as the Ki on a negative log10 scale, so that one unit is a factor of ten. A word on the pEC50: it is the EC50 on a negative log10 scale, so that one unit is a factor of ten. Read a low pEC50 as a high EC50. For the compound `N#CC1=C2N=C(N)c3ccccc3N2C2=C(C(=O)CCC2)C1c1ccc(-c2ccccc2)cc1` (stereo not given), in data set [4], the IC50 at 48 h came out at 19.9 µM. The pIC50 in [1] was 5.21. Also, the pKi in data set [5] was 5.49. The values for the pEC50 in the data set on HMC3 [6] and with HMC3 [7] were 5.70 and 4.70, respectively.

`N#CC1=C2N=C(N)c3ccccc3N2C2=C(C(=O)CCC2)C1c1cc2ccccc2s1` (stereo not given) had a pIC50 in [1] of 4.40.

In turn, `CC1(C)CC(=O)C2=C(C1)N1C(=C(C#N)C2c2ccc(-c3ccccc3)cc2)N=C(N)c2ccccc21` (stereo not given) gave a pIC50 in data set [1] of 4.75.

Consider `O[C@H](c1cc(-c2ccccc2)nc2c1ccc1ccccc12)[C@@H]1CCCCN1`, for which the pIC50 in data set [3] and in [8] was 4.52 in each case.

As to `C[C@@]12CCC[C@H]1[C@@H]1CC[C@H]3C[C@H](N)[C@H](N)C[C@]3(C)[C@H]1CC2`, the pIC50 in [9] was 5.22.

For `N#CC1=C2N=C(N)c3ccccc3N2C2=C(C(=O)CCC2)C1c1nc2ccccc2s1` (stereo not given), in [1], the pIC50 is below 4.40.

For the compound `N#CC1=C2N=C(N)c3ccccc3N2C2=C(C(=O)CCC2)C1c1ccc(Cl)cc1Cl` (stereo not given), the pIC50 in data set [1] was 4.41.

Consider `N#CC1=C2N=C(N)c3ccccc3N2C2=C(C(=O)CC(c3cccs3)C2)C1c1cccnc1` (stereo not given), for which the pIC50 in data set [1] is 4.06; in data set [10], below 3.70.

The compound `N#CC1=C2N=C(N)c3ccccc3N2C2=C(C(=O)CCC2)C1c1ccc(F)c(F)c1` (stereo not given) showed a pIC50 in data set [1] below 4.40.

For `N#CC1=C2N=C(N)c3ccccc3N2C2=C(C(=O)CCC2)C1c1cc2ccccc2o1` (stereo not given), the pIC50 in data set [1] was 4.55.

The compound `N#CC1=C2N=C(N)c3ccccc3N2C2=C(C(=O)CCC2)C1c1cccc([N+](=O)[O-])c1` (stereo not given) had a pIC50 in data set [1] of 4.44.

With `O[C@H](c1cc(C23CC4CC(CC(C4)C2)C3)nc2c(Cl)cc(Cl)cc12)[C@@H]1CCCCN1`, the results for the pIC50 in data set [3] and in data set [8] were 4.20 and 4.46, respectively.

For the compound `CC(C)c1ccc(C2C(C#N)=C3N=C(O)c4ccccc4N3C3=C2C(=O)CCC3)cc1` (stereo not given), in data set [1], the pIC50 was 4.47.

In data set [1], `CC(C)c1ccc(C2C(C#N)=C3N=C(N)c4ccccc4N3C3=C2C(=O)CC(C)(C)C3)cc1` (stereo not given) gave a pIC50 of 4.99.

In the case of `C[C@@]12CCC[C@H]1[C@@H]1CC[C@H]3C[C@H](N)CC[C@]3(C)[C@H]1CC2`, in data set [9], the pIC50 was 4.80.

In data set [1], `CC(=O)C1=C(C)Nc2sc(C(=O)c3ccc(Cl)c(Cl)c3)c(N)c2C1c1cccnc1` (stereo not given) had a pIC50 of 4.33.

Consider `N#CC1=C2N=C(N)c3ccccc3N2C2=C(C(=O)CCC2)C1c1cc(Br)ccc1F` (stereo not given), for which, in data set [1], the pIC50 was 4.63.

In data set [1], `CC(C)c1ccc(C2C(C#N)=C3N=C(N)c4ccccc4N3C3=C2C(=O)CCC3)cc1` (stereo not given) had a pIC50 of 4.88.
